“And” between values parts separate entries of the source, which are not always exact repeats. Equal values may be shown once.
How the values were obtained:
[1] = test system: WI‐26 VA4 cells stably expressing EV (empty vector); assay: Collagen ELISA in cells stably expressing EV; details: for Collagen level, average: average of 4 experiments; for Collagen level, single replicates: replicates of Experiments #1-#4
[2] = biological target: T1, PARS1 F1097A/E1123A/R1152L (FA/EA/RL) mutant (Homo sapiens, UniProt P07814, E1123A/F1097A/R1152L); assay: Microscale thermophoresis (MST), PARS1 mutant; format: binding; details: for Fraction bound: single replicates
T1 construct: His‐PARS1 (1001–1,512 aa); made in house; host or cells: Escherichia coli
T1 sequence (P07814 1001-1512 F1097A/E1123A/R1152L): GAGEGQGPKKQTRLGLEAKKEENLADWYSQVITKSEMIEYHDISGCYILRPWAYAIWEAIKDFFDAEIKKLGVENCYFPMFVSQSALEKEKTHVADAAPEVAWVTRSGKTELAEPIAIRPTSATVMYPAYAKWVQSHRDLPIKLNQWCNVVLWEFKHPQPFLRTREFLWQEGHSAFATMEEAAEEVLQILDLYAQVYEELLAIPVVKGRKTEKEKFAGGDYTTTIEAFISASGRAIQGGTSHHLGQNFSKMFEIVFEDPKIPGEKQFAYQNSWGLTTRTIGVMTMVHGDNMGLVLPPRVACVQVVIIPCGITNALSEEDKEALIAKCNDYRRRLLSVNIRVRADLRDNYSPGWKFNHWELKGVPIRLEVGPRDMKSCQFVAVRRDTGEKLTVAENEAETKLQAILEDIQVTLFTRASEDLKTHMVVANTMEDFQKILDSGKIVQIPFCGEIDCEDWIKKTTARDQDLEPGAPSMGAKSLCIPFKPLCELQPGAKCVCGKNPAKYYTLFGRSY

O=C(CC1NCCCC1O)Cn1cnc2cc(Br)c(Cl)cc2c1=O (stereo not drawn) [HF, Halofuginone, reference compound]
IC50 ([1]; Homo sapiens, WI26VA4, read-out: IC50, collagen level): 15.2 nM | Collagen level, average ([1]; WI-26 VA4 EV, 0.3 nM): 105.43 % of control | Collagen level, single replicates ([1]; WI-26 VA4 EV, 0.3 nM): 107.71 % of control and 102.31 % of control and 99.56 % of control and 107.96 % of control and 119.37 % of control and 97.79 % of control and 105.72 % of control and 112.41 % of control and 97.00 % of control and 105.68 % of control and 103.25 % of control | Collagen level, average ([1]; WI-26 VA4 EV, 1 nM): 98.88 % of control | Collagen level, single replicates ([1]; WI-26 VA4 EV, 1 nM): 99.81 % of control and 96.49 % of control and 94.72 % of control and 113.88 % of control and 89.98 % of control and 98.97 % of control and 99.45 % of control and 90.47 % of control and 100.22 % of control and 101.63 % of control and 90.65 % of control and 110.29 % of control | Collagen level, average ([1]; WI-26 VA4 EV, 3 nM): 98.91 % of control | Collagen level, single replicates ([1]; WI-26 VA4 EV, 3 nM): 95.48 % of control and 110.90 % of control and 101.31 % of control and 98.76 % of control and 84.68 % of control and 101.40 % of control and 94.43 % of control and 83.51 % of control and 102.77 % of control and 119.57 % of control and 100.02 % of control and 94.04 % of control | Collagen level, average ([1]; WI-26 VA4 EV, 10 nM): 67.80 % of control | Collagen level, single replicates ([1]; WI-26 VA4 EV, 10 nM): 70.56 % of control and 73.60 % of control and 52.16 % of control and 80.52 % of control and 55.32 % of control and 68.13 % of control and 71.03 % of control and 51.88 % of control and 67.22 % of control and 78.89 % of control and 53.10 % of control and 91.18 % of control | Collagen level, average ([1]; WI-26 VA4 EV, 30 nM): 31.49 % of control | Collagen level, single replicates ([1]; WI-26 VA4 EV, 30 nM): 29.59 % of control and 29.66 % of control and 28.02 % of control and 34.01 % of control and 34.11 % of control and 31.81 % of control and 31.01 % of control and 33.29 % of control and 33.04 % of control and 33.86 % of control and 29.96 % of control and 29.53 % of control | Collagen level, average ([1]; WI-26 VA4 EV, 100 nM): 6.34 % of control | Collagen level, single replicates ([1]; WI-26 VA4 EV, 100 nM): 7.42 % of control and 5.23 % of control and 5.03 % of control and 5.46 % of control and 5.70 % of control and 6.01 % of control and 7.87 % of control and 7.08 % of control and 6.26 % of control and 7.39 % of control and 6.77 % of control and 5.82 % of control | Collagen level, average ([1]; WI-26 VA4 EV, 300 nM): 4.49 % of control | Collagen level, single replicates ([1]; WI-26 VA4 EV, 300 nM): 4.87 % of control and 3.68 % of control and 2.38 % of control and 3.50 % of control and 4.00 % of control and 5.84 % of control and 5.04 % of control and 4.31 % of control and 5.22 % of control and 6.88 % of control and 2.82 % of control and 5.35 % of control | Collagen level, average ([1]; WI-26 VA4 EV, 1000 nM): 5.68 % of control | Collagen level, single replicates ([1]; WI-26 VA4 EV, 1000 nM): 6.31 % of control and 4.51 % of control and 4.24 % of control and 5.46 % of control and 6.24 % of control and 6.40 % of control and 5.99 % of control and 5.56 % of control and 5.73 % of control and 6.61 % of control and 4.97 % of control and 6.15 % of control | HillSlope, collagen level ([1]; WI-26 VA4 EV, four-parameter fit): -1.549 | LogIC50, collagen level ([1]; WI-26 VA4 EV, log of concentration in nM, four-parameter fit): 1.181 | Fraction bound, average ([2]; Dose 3.0518 nM): -0.2588 | Fraction bound ([2]; Dose 3.0518 nM): -0.0691 and -0.4485 | Fraction bound, average ([2]; Dose 6.1035 nM): 0.0816 | Fraction bound ([2]; Dose 6.1035 nM): -0.1353 and 0.0688 and 0.3113 | Fraction bound, average ([2]; Dose 12.207 nM): -0.0324 | Fraction bound ([2]; Dose 12.207 nM): -0.1134 and -0.0549 and 0.0712 | Fraction bound, average ([2]; Dose 24.4141 nM): 0.1754 | Fraction bound ([2]; Dose 24.4141 nM): 0.2387 and 0.0706 and 0.2171 | Fraction bound, average ([2]; Dose 48.8281 nM): 0.0946 | Fraction bound ([2]; Dose 48.8281 nM): 0.0297 and 0.0849 and 0.1693 | Fraction bound, average ([2]; Dose 97.6563 nM): -0.0450 | Fraction bound ([2]; Dose 97.6563 nM): -0.0271 and 0.1069 and -0.2149 | Fraction bound, average ([2]; Dose 195.312 nM): 0.0503 | Fraction bound ([2]; Dose 195.312 nM): 0.0657 and 0.2487 and -0.1634 | Fraction bound, average ([2]; Dose 390.625 nM): -0.0697 | Fraction bound ([2]; Dose 390.625 nM): 0.2249 and -0.2797 and -0.1544 | Fraction bound, average ([2]; Dose 781.25 nM): 0.0626 | Fraction bound ([2]; Dose 781.25 nM): 0.0905 and 0.1699 and -0.0724 | Fraction bound, average ([2]; Dose 1562.5 nM): 0.4132 | Fraction bound ([2]; Dose 1562.5 nM): 0.3970 and 0.3491 and 0.4935 | Fraction bound, average ([2]; Dose 3125 nM): 0.2921 | Fraction bound ([2]; Dose 3125 nM): 0.2701 and 0.2589 and 0.3472 | Fraction bound, average ([2]; Dose 6250 nM): 0.4932 | Fraction bound ([2]; Dose 6250 nM): 0.1312 and 0.6482 and 0.7002 | Fraction bound, average ([2]; Dose 12500 nM): 0.6254 | Fraction bound ([2]; Dose 12500 nM): 0.5193 and 0.6344 and 0.7226 | Fraction bound, average ([2]; Dose 25000 nM): 0.6785 | Fraction bound ([2]; Dose 25000 nM): 0.6923 and 0.6116 and 0.7317 | Fraction bound, average ([2]; Dose 50000 nM): 0.8304 | Fraction bound ([2]; Dose 50000 nM): 1.1885 and 0.7220 and 0.5806 | Fraction bound, average ([2]; Dose 100000 nM): 1.0687 | Fraction bound ([2]; Dose 100000 nM): 0.9757 and 1.0430 and 1.1875

Reference: PMC10331583, “Control of fibrosis with enhanced safety via asymmetric inhibition of prolyl‐tRNA synthetase 1” (EMBO Molecular Medicine, 2023)
